Test results as given in PubChem BioAssay (NCI).
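Each compound was tested at five concentrations against cells in 96-well plates for 48 hours. TGI: concentration producing complete growth inhibition.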

Key:
Assay in all cases: DTP human tumour cell line panel, 48 h
IGROV1 ovarian = test system: IGROV1 ovarian
CAKI-1 renal = test system: CAKI-1 renal
LOX IMVI melanoma = test system: LOX IMVI melanoma
CCRF-CEM leukemia = test system: CCRF-CEM leukemia
M19-MEL melanoma = test system: M19-MEL melanoma
786-0 renal = test system: 786-0 renal
SK-MEL-28 melanoma = test system: SK-MEL-28 melanoma
UO-31 renal = test system: UO-31 renal
M14 melanoma = test system: M14 melanoma
RXF 393 renal = test system: RXF 393 renal
OVCAR-8 ovarian = test system: OVCAR-8 ovarian
A498 renal = test system: A498 renal
DMS 273 small cell lung = test system: DMS 273 small cell lung
NCI-H522 lung = test system: NCI-H522 lung
RPMI-8226 leukemia = test system: RPMI-8226 leukemia
NCI-H460 lung = test system: NCI-H460 lung
MALME-3M melanoma = test system: MALME-3M melanoma
KM12 colon = test system: KM12 colon
DLD-1 colon = test system: DLD-1 colon
HOP-18 NSCLC = test system: HOP-18 NSCLC
HOP-92 NSCLC = test system: HOP-92 NSCLC
SN12C renal = test system: SN12C renal
OVCAR-4 ovarian = test system: OVCAR-4 ovarian
A549 NSCLC = test system: A549 NSCLC
UACC-62 melanoma = test system: UACC-62 melanoma
SF-295 CNS = test system: SF-295 CNS
ACHN renal = test system: ACHN renal
MOLT-4 leukemia = test system: MOLT-4 leukemia
SW-620 colon = test system: SW-620 colon
DMS 114 small cell lung = test system: DMS 114 small cell lung
SR leukemia = test system: SR leukemia
SK-OV-3 ovarian = test system: SK-OV-3 ovarian
COLO 205 colon = test system: COLO 205 colon
SF-268 CNS = test system: SF-268 CNS
OVCAR-5 ovarian = test system: OVCAR-5 ovarian
NCI-H226 lung = test system: NCI-H226 lung
LXFL 529 NSCLC = test system: LXFL 529 NSCLC
K-562 leukemia = test system: K-562 leukemia
HCT-15 colon = test system: HCT-15 colon
HCT-116 colon = test system: HCT-116 colon
HT29 colon = test system: HT29 colon
TK-10 renal = test system: TK-10 renal
SK-MEL-2 melanoma = test system: SK-MEL-2 melanoma
NCI-H23 lung = test system: NCI-H23 lung
HL-60(TB) leukemia = test system: HL-60(TB) leukemia
SK-MEL-5 melanoma = test system: SK-MEL-5 melanoma
U251 CNS = test system: U251 CNS
SNB-75 CNS = test system: SNB-75 CNS
SF-539 CNS = test system: SF-539 CNS
UACC-257 melanoma = test system: UACC-257 melanoma
HOP-62 NSCLC = test system: HOP-62 NSCLC
SNB-19 CNS = test system: SNB-19 CNS
KM20L2 colon = test system: KM20L2 colon
SNB-78 CNS = test system: SNB-78 CNS
OVCAR-3 ovarian = test system: OVCAR-3 ovarian
EKVX NSCLC = test system: EKVX NSCLC
HCC-2998 colon = test system: HCC-2998 colon

O=c1c2ccccc2nc(-c2ccccc2)n1NC(=S)Nc1ccc(Cl)cc1[N+](=O)[O-]
TGI (IGROV1 ovarian): > 100 µM
TGI (CAKI-1 renal): > 100 µM
TGI (LOX IMVI melanoma): > 100 µM
TGI (CCRF-CEM leukemia): > 100 µM
TGI (M19-MEL melanoma): > 100 µM
TGI (786-0 renal): > 100 µM
TGI (SK-MEL-28 melanoma): 82.4 µM
TGI (UO-31 renal): > 100 µM
TGI (M14 melanoma): > 100 µM
TGI (RXF 393 renal): > 100 µM
TGI (OVCAR-8 ovarian): > 100 µM
TGI (A498 renal): > 100 µM
TGI (DMS 273 small cell lung): > 100 µM
TGI (NCI-H522 lung): > 100 µM
TGI (RPMI-8226 leukemia): > 100 µM
TGI (NCI-H460 lung): > 100 µM
TGI (MALME-3M melanoma): > 100 µM
TGI (KM12 colon): > 100 µM
TGI (DLD-1 colon): > 100 µM
TGI (HOP-18 NSCLC): > 100 µM
TGI (HOP-92 NSCLC): > 100 µM
TGI (SN12C renal): > 100 µM
TGI (OVCAR-4 ovarian): > 100 µM
TGI (A549 NSCLC): > 100 µM
TGI (UACC-62 melanoma): > 100 µM
TGI (SF-295 CNS): > 100 µM
TGI (ACHN renal): > 100 µM
TGI (MOLT-4 leukemia): > 100 µM
TGI (SW-620 colon): > 100 µM
TGI (DMS 114 small cell lung): > 100 µM
TGI (SR leukemia): > 100 µM
TGI (SK-OV-3 ovarian): > 100 µM
TGI (COLO 205 colon): > 100 µM
TGI (SF-268 CNS): > 100 µM
TGI (OVCAR-5 ovarian): > 100 µM
TGI (NCI-H226 lung): 82.4 µM
TGI (LXFL 529 NSCLC): > 100 µM
TGI (K-562 leukemia): > 100 µM
TGI (HCT-15 colon): > 100 µM
TGI (HCT-116 colon): > 100 µM
TGI (HT29 colon): > 100 µM
TGI (TK-10 renal): > 100 µM
TGI (SK-MEL-2 melanoma): > 100 µM
TGI (NCI-H23 lung): > 100 µM
TGI (HL-60(TB) leukemia): > 100 µM
TGI (SK-MEL-5 melanoma): > 100 µM
TGI (U251 CNS): > 100 µM
TGI (SNB-75 CNS): > 100 µM
TGI (SF-539 CNS): > 100 µM
TGI (UACC-257 melanoma): > 100 µM
TGI (HOP-62 NSCLC): > 100 µM

CSc1ccc2c(cc1=O)C(NC(=O)c1ccc(OC(C)=O)cc1)CCc1cc(O)c(O)c(O)c1-2 (stereo unspecified)
TGI (CCRF-CEM leukemia): > 100 µM
TGI (M19-MEL melanoma): 29.2 µM
TGI (SNB-19 CNS): > 100 µM
TGI (786-0 renal): > 100 µM
TGI (SK-MEL-28 melanoma): > 100 µM
TGI (UO-31 renal): > 100 µM
TGI (M14 melanoma): 30.7 µM
TGI (OVCAR-8 ovarian): 60.2 µM
TGI (KM20L2 colon): > 100 µM
TGI (A498 renal): > 100 µM
TGI (DMS 273 small cell lung): 47.1 µM
TGI (NCI-H522 lung): 28.8 µM
TGI (NCI-H460 lung): 50.4 µM
TGI (MALME-3M melanoma): > 100 µM
TGI (KM12 colon): > 100 µM
TGI (DLD-1 colon): 35.8 µM
TGI (SN12C renal): 31.6 µM
TGI (OVCAR-4 ovarian): 22 µM
TGI (A549 NSCLC): > 100 µM
TGI (UACC-62 melanoma): 36.3 µM
TGI (SF-295 CNS): 35.3 µM
TGI (ACHN renal): > 100 µM
TGI (MOLT-4 leukemia): 28.9 µM
TGI (SW-620 colon): 29.5 µM
TGI (DMS 114 small cell lung): 52.4 µM
TGI (SR leukemia): 35.3 µM
TGI (SK-OV-3 ovarian): 98.1 µM
TGI (SNB-78 CNS): > 100 µM
TGI (COLO 205 colon): 30.8 µM
TGI (SF-268 CNS): > 100 µM
TGI (OVCAR-5 ovarian): 78 µM
TGI (NCI-H226 lung): 50.8 µM
TGI (LXFL 529 NSCLC): 35.2 µM
TGI (OVCAR-3 ovarian): 44.5 µM
TGI (K-562 leukemia): 7.53 µM
TGI (HCT-15 colon): 34.9 µM
TGI (EKVX NSCLC): 44 µM
TGI (HCT-116 colon): 31.1 µM
TGI (HT29 colon): 37.9 µM
TGI (TK-10 renal): > 100 µM
TGI (SK-MEL-2 melanoma): 49.7 µM
TGI (NCI-H23 lung): 67.7 µM
TGI (HL-60(TB) leukemia): 21.9 µM
TGI (SK-MEL-5 melanoma): 31.5 µM
TGI (U251 CNS): 39 µM
TGI (SNB-75 CNS): 55.6 µM
TGI (SF-539 CNS): 40.1 µM
TGI (UACC-257 melanoma): 38.9 µM
TGI (HCC-2998 colon): > 100 µM
TGI (HOP-62 NSCLC): > 100 µM
